Earlier results as cited in patent publication US20160220569A1, “CDK4/6 Inhibitor Dosage Formulations For The Protection Of Hematopoietic Stem And Progenitor Cells During Chemotherapy” (G1 Therapeutics, Inc., priority 2015, published 2016).
Read-outs that look alike come from different tables or passages of the source.

Assays:
[1] = cited from earlier work
[2] = cited from earlier work; remark: listed apart in the source
[3] = Grade 3/4 neutropenia and leukopenia with palbociclib

CC(=O)c1c(C)c2cnc(Nc3ccc(N4CCNCC4)cn3)nc2n(C2CCCC2)c1=O [palbociclib, 6-acetyl-8-cyclopentyl-5-methyl-2-(5-piperazin-1-yl-pyridin-2-ylammino)-8H-pyrido-[2,3-d]-pyrimidin-7-one]
patients requiring a dose interruption [1, 3]: 71%
patients requiring a dose reduction [1, 3]: 35%
AUC (0-10) ([2]; 100 mg QD, Day 1): 333 ng·h/mL
Cmax ([2]; 100 mg QD, Day 1): 44 ng/mL
Tmax ([2]; 100 mg QD, Day 1): 4 h
AUC (0-10) ([2]; 100 mg QD, Day 8): 433 ng·h/mL
Cmax ([2]; 100 mg QD, Day 8): 58 ng/mL
Tmax ([2]; 100 mg QD, Day 8): 4 h
AUC (0-10) ([2]; 150 mg QD, Day 1): 622 ng·h/mL
Cmax ([2]; 150 mg QD, Day 1): 78 ng/mL
Tmax ([2]; 150 mg QD, Day 1): 6 h
AUC (0-10) ([2]; 150 mg QD, Day 8): 1599 ng·h/mL
Cmax ([2]; 150 mg QD, Day 8): 194 ng/mL
Tmax ([2]; 150 mg QD, Day 8): 7 h
AUC(0-inf) ([2]; 150 mg oral): 2002 n*hr/ml
CL/F ([2]; 150 mg oral): 88.5 L/h
Cmax ([2]; 150 mg oral): 78 ng/mL
T1/2 ([2]; 150 mg oral): 26.7 h
AUC (0-10) ([2]; 200 mg QD, Day 1): 525 ng·h/mL
Cmax ([2]; 200 mg QD, Day 1): 81 ng/mL
Tmax ([2]; 200 mg QD, Day 1): 5.7 h
AUC (0-10) ([2]; 200 mg QD, Day 8): 1395 ng·h/mL
Cmax ([2]; 200 mg QD, Day 8): 174 ng/mL
Tmax ([2]; 200 mg QD, Day 8): 4 h
AUC (0-10) ([2]; 225 mg QD, Day 1): 718 ng·h/mL
Cmax ([2]; 225 mg QD, Day 1): 104 ng/mL
Tmax ([2]; 225 mg QD, Day 1): 4 h
AUC (0-10) ([2]; 225 mg QD, Day 8): 1491 ng·h/mL
Cmax ([2]; 225 mg QD, Day 8): 186 ng/mL
Tmax ([2]; 225 mg QD, Day 8): 4.5 h
T1/2 ([2]; palbociclib, literature): roughly 26.7 hours

CCN1CCN(Cc2ccc(Nc3ncc(F)c(-c4cc(F)c5nc(C)n(C(C)C)c5c4)n3)nc2)CC1 [Abemaciclib]
diarrhea in clinical trials ([1]; abemaciclib, gastrointestinal toxicity): greater than 50%

CN(C)C(=O)c1cc2cnc(Nc3ccc(N4CCNCC4)cn3)nc2n1C1CCCC1 [ribociclib]
associated adverse effect ([1]; ribociclib administration): QT prolongation
